According to the NIST ThermoML archive (doi:10.1021/je300533r):
Where “and” joins values, the source holds several entries; their conditions need not be identical. Equal values may be shown once. Numbers after ± are expanded uncertainties.

Assay: refractive index (Na D-line) (dimensionless); wn = mass fraction of the nth substance listed
Details: 298.15 K, 101 kPa, Liquid, Standard Abbe refractometry

For `CC(C)(C)O` [2-methylpropan-2-ol] + O, the refractive index (w1 = 0.0971) was 1.3426 ± 0.0008.
Compound `CCC(C)O` (stereo unspecified) [butan-2-ol] + O has a refractive index (w1 = 0.0982) of 1.3431 ± 0.0008.
In the case of `O=C([O-])[C@H](O)[C@@H](O)C(=O)[O-].[Na+].[Na+]` [disodium L-tartrate] + O, the refractive index (w1 = 0.0401) is reported as 1.3393 ± 0.0008, the refractive index (w1 = 0.0452) is reported as 1.3404 ± 0.0008 and the refractive index (w1 = 0.0472) is reported as 1.34 ± 0.0008 and 1.3403 ± 0.0008.
`CCCO` [propan-1-ol] + O showed a refractive index (w1 = 0.0949) of 1.3413 ± 0.0008.
